“And” between values parts separate entries of the source, which are not always exact repeats. Equal values may be shown once. Read-outs that look alike come from different tables or passages of the source.
How the values were obtained:
Assay in all cases: greenhouse post-emergence herbicidal test
KCHSC = format: in vivo, Kochia scoparia; parameters: key to herbicidal activity against KCHSC found: rating on a scale from 0 to 100; conditions: post emergence
Method in brief: (§1)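 Herbicidal activity scored on a 0 (no damage) to 100 (plants destroyed) scale, usually 20 days after water-based spraying of 1–15 cm plants grown in loamy sand at 10-25 °C or 20-35 °C depending on species. Components were applied from 10% emulsion concentrates; Colby's E=X+Y−(X·Y/100) gives the additive expectation.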

GERPU = format: in vivo, Geranium pusillum; conditions: application rate a.i.: I.1 31.25 g/ha
Procedure: (§2) The culture containers used were plastic pots containing medium loamy sand with approximately 4.6% of humus and 69.9% sand as substrate. The seeds of the test plants were sown separately for each species.
(§3) For the post-emergence treatment, the test plants were grown to a plant height of from 1 to 15 cm, depending on the plant habit, and only then treated with the active compounds which had been suspended or emulsified in water. To this end, the test plants were either sown directly, and grown in the same containers, or they were first grown separately as seedlings and transplanted into the test containers a few days prior to treatment.
(§4) Depending on the species, the plants were kept at 10-25° C. and 20-35° C., respectively.
(§5) The test period extended over 1 to 3 weeks. During this time, the plants were tended and their response to the individual treatments was evaluated 20 days after treatment except mentioned otherwise.
(§6) Evaluation was carried out using a scale from 0 to 100. 100 means no emergence of the plants, or complete destruction of at least the above-ground parts, and 0 means no damage or normal course of growth.
(§7) The respective stated components A and B, and, if appropriate, C, were formulated as a 10% by weight strength emulsion concentrate and, with addition of the amount of solvent system, introduced into the spray liquor used for applying the active compound. In the examples, the solvent used was water.
(§8) In the examples below, using the method of S. R. Colby (1967) “Calculating synergistic and antagonistic responses of herbicide combinations”, Weeds 15, p. 22 ff., the value E, which is expected if the activity of the individual active compounds is only additive, was calculated. E=X+Y−(X·Y/100)

APESV = format: in vivo, Apera spica-venti; parameters: key to herbicidal activity against APESV found: rating on a scale from 0 to 100; conditions: post emergence; for pest or weed control at 31.25 g/ha / pest or weed control at 62.5 g/ha / pest or weed control at 125 g/ha: Apera spica-venti, post-emergence, 480 h, read-out: herbicidal activity against APESV found
Method in brief: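 Greenhouse pots, loamy sand substrate (~4.6% humus, ~69.9% sand). Spray applied once plants reached 1–15 cm. Scoring 0–100, day 20.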

VIOAR = format: in vivo, Viola arvensis; parameters: key to herbicidal activity against VIOAR found / herbicidal activity against VIOLA found: rating on a scale from 0 to 100; conditions: post emergence; for pest or weed control at 62.5 g/ha / pest or weed control at 125 g/ha: Viola arvensis, post-emergence, read-out: herbicidal activity against VIOAR found
Method in brief: as §1

SEBEX = format: in vivo, Sesbania exaltata; conditions: application rate a.i.: I.1 31.25 g/ha
Procedure: as §2, §3, §4, §5, §6, §7, §8

SETVI = format: in vivo, Setaria viridis; conditions: a.i. g/ha: I.1 20.8, B.192 62.5, 20 days after treatment
Procedure: as §2, §3, §4, §5
Evaluation was carried out using a scale from 0 to 100. […]
In the examples below, using the method of S. R. Colby (1967) “Calculating synergistic and antagonistic responses of herbicide combinations”, Weeds 15, p. 22 ff., the value E, which is expected if the activity of the individual active compounds is only additive, was calculated. […]

[1] = 6 days after treatment, g/ha a.i.: I.1 31.25, B.96 35, mixture 31.25+35
[2] = 6 days after treatment, g/ha a.i.: I.1 31.25, B.96 70, mixture 31.25+70
[3] = 6 days after treatment, g/ha a.i.: I.1 31.25, B.96 140, mixture 31.25+140
[4] = 6 days after treatment, g/ha a.i.: I.1 31.25, naptalam 200, mixture 31.25+200
[5] = 6 days after treatment, g/ha a.i.: I.1 62.5, B.96 35, mixture 62.5+35
[6] = 6 days after treatment, g/ha a.i.: I.1 62.5, B.96 70, mixture 62.5+70
[7] = I.1 15.62 g/ha, B.88 1 g/ha a.i.
[8] = I.1 31.25 g/ha, B.88 1 g/ha a.i.
[9] = I.1 62.5 g/ha, B.88 1 g/ha a.i.
[10] = applied alone at 31.25 g/ha a.i.
[11] = g/ha a.i.: I.1 31.25, B.24 1, mixture 31.25+1
[12] = B.139 (pyroxasulfone) 25 g/ha, alone or as mixture (composition 1.139)
[13] = B.87 (carfentrazone-ethyl) 1.75 g/ha, alone or as mixture (composition 1.87)
[14] = g/ha a.i.: I.1 62.5, B.52 2.5, mixture 62.5+2.5
[15] = g/ha a.i.: I.1 125, B.52 2.5, mixture 125+2.5

Q: What does the source list for `O=C(O)c1cc(C2CC2)nc2onc(C3CC3)c12` [I.1]?
A: pest or weed control at 31.25 g/ha (KCHSC; Bassia scoparia, post-emergence, 480 h, I.1 alone 31.25 g/ha a.i., read-out: herbicidal activity against KCHSC found): 70%; pest or weed control at 62.5 g/ha (KCHSC; Bassia scoparia, post-emergence, 480 h, I.1 alone 62.5 g/ha a.i., read-out: herbicidal activity against KCHSC found): 85%; pest or weed control at 31.25 g/ha (KCHSC; Bassia scoparia, post-emergence, 480 h, 31.25 g/ha a.i., read-out: herbicidal activity against KCHSC found): 75%; pest or weed control at 125 g/ha (KCHSC; Bassia scoparia, post-emergence, 480 h, I.1 125 g/ha a.i., read-out: herbicidal activity against KCHSC found): 95%; pest or weed control at 15.625 g/ha (KCHSC; Bassia scoparia, post-emergence, 480 h, single active, 15.625 g/ha a.i., read-out: herbicidal activity against KCHSC found): 0%; pest or weed control at 31.25 g/ha (KCHSC; Bassia scoparia, post-emergence, 480 h, single active, 31.25 g/ha a.i., read-out: herbicidal activity against KCHSC found): 30%; pest or weed control at 62.5 g/ha (KCHSC; Bassia scoparia, post-emergence, 480 h, single active, 62.5 g/ha a.i., read-out: herbicidal activity against KCHSC found): 70%; herbicidal activity against KCHSC found (KCHSC; [1]): 10; herbicidal activity against KCHSC found (KCHSC; [2]): 10; herbicidal activity against KCHSC found (KCHSC; [3]): 10; herbicidal activity against KCHSC found (KCHSC; 6 days after treatment, g/ha a.i.: I.1 31.25, naptalam 100, mixture 31.25+100): 10; herbicidal activity against KCHSC found (KCHSC; [4]): 10; herbicidal activity against KCHSC found (KCHSC; [5]): 90; herbicidal activity against KCHSC found (KCHSC; [6]): 90; herbicidal activity against KCHSC found (KCHSC; [7]): 45; herbicidal activity against KCHSC found (KCHSC; I.1 31.25 g/ha, B.103 7.5 g/ha a.i.): 30; herbicidal activity against KCHSC found (KCHSC; I.1 31.25 g/ha, B.103 15 g/ha a.i.): 30; herbicidal activity against KCHSC found (KCHSC; I.1 31.25 g/ha, B.167 62.5 g/ha a.i.): 30; herbicidal activity against KCHSC found (KCHSC; [8]): 55; herbicidal activity against KCHSC found (KCHSC; I.1 62.5 g/ha, B.103 7.5 g/ha a.i.): 70; herbicidal activity against KCHSC found (KCHSC; I.1 62.5 g/ha, B.103 15 g/ha a.i.): 70; herbicidal activity against KCHSC found (KCHSC; I.1 62.5 g/ha, B.167 62.5 g/ha a.i.): 70; herbicidal activity against KCHSC found (KCHSC; [9]): 80; herbicidal activity against KCHSC found (KCHSC; [10]): 80; herbicidal activity against KCHSC found (KCHSC; applied alone at 125 g/ha a.i.): 95; herbicidal activity against KCHSC found (KCHSC; [11]): 40; herbicidal activity against KCHSC found (KCHSC; g/ha a.i.: I.1 31.25, B.24 2, mixture 31.25+2): 40; herbicidal activity against GERPU, found (GERPU; B.139 (pyroxasulfone) 12.5 g/ha, alone or as mixture (composition 1.139)): 80; herbicidal activity against GERPU, found (GERPU; [12]): 80; herbicidal activity against GERPU, found (GERPU; [13]): 80; pest or weed control at 31.25 g/ha (APESV; I.1 alone 31.25 g/ha a.i.): 0%; pest or weed control at 62.5 g/ha (APESV; I.1 alone 62.5 g/ha a.i.): 0%; pest or weed control at 125 g/ha (APESV; I.1 alone 125 g/ha a.i.): 0%; pest or weed control at 31.25 g/ha (APESV; 31.25 g/ha a.i.): 0%; pest or weed control at 62.5 g/ha (APESV; 62.5 g/ha a.i.): 0%; pest or weed control at 125 g/ha (APESV; I.1 125 g/ha a.i.): 15%; pest or weed control at 31.25 g/ha (APESV; single active, 31.25 g/ha a.i.): 0%; pest or weed control at 62.5 g/ha (APESV; single active, 62.5 g/ha a.i.): 0%; pest or weed control at 125 g/ha (APESV; single active, 125 g/ha a.i.): 0%; herbicidal activity against APESV found (APESV; [7]): 0; herbicidal activity against APESV found (APESV; I.1 15.62 g/ha, B.95 1 g/ha a.i.): 0; herbicidal activity against APESV found (APESV; [8]): 0; herbicidal activity against APESV found (APESV; I.1 31.25 g/ha, B.88 2 g/ha a.i.): 0; herbicidal activity against APESV found (APESV; [9]): 10; herbicidal activity against APESV found (APESV; I.1 62.5 g/ha, B.88 2 g/ha a.i.): 10; herbicidal activity against APESV found (APESV; I.1 62.5 g/ha, B.95 1 g/ha a.i.): 10; herbicidal activity against APESV found (APESV; a.i. g/ha: I.1 2.3, B.67 62.5, 20 days after treatment): 0%; herbicidal activity against APESV found (APESV; a.i. g/ha: I.1 6.9, B.67 62.5, 20 days after treatment): 0%; herbicidal activity against APESV found (APESV; [10]): 0; herbicidal activity against APESV found (APESV; applied alone at 125 g/ha a.i.): 15; herbicidal activity against APESV found (APESV; [11]): 20; herbicidal activity against APESV found (APESV; g/ha a.i.: I.1 62.5, B.20 4, mixture 62.5+4): 20; herbicidal activity against APESV found (APESV; [14]): 20; herbicidal activity against APESV found (APESV; [15]): 35; pest or weed control at 62.5 g/ha (VIOAR; I.1 alone 62.5 g/ha a.i.): 30%; pest or weed control at 62.5 g/ha (VIOAR; 62.5 g/ha a.i.): 0%; pest or weed control at 125 g/ha (VIOAR; 125 g/ha a.i.): 90%; pest or weed control at 62.5 g/ha (VIOAR; single active, 62.5 g/ha a.i.): 20%; pest or weed control at 125 g/ha (VIOAR; single active, 125 g/ha a.i.): 30%; herbicidal activity against VIOAR found (VIOAR; [1]): 0; herbicidal activity against VIOAR found (VIOAR; [2]): 0; herbicidal activity against VIOAR found (VIOAR; [3]): 0; herbicidal activity against VIOAR found (VIOAR; [4]): 0; herbicidal activity against VIOAR found (VIOAR; [5]): 0; herbicidal activity against VIOAR found (VIOAR; [6]): 0; herbicidal activity against VIOAR found (VIOAR; 6 days after treatment, g/ha a.i.: I.1 62.5, B.96 140, mixture 62.5+140): 0; herbicidal activity against VIOAR found (VIOAR; 6 days after treatment, g/ha a.i.: I.1 62.5, naptalam 100, mixture 62.5+100): 0; herbicidal activity against VIOAR found (VIOAR; 6 days after treatment, g/ha a.i.: I.1 62.5, naptalam 200, mixture 62.5+200): 0; herbicidal activity against VIOAR found (VIOAR; I.1 62.5 g/ha, B.89 12.5 g/ha a.i.): 25; herbicidal activity against VIOAR found (VIOAR; application rate a.i.: I.1 31.25 g/ha, B.84 (paraquat-dichloride) 17.5 g/ha, alone or as mixture (composition 1.84)): 40; herbicidal activity against VIOAR found (VIOAR; application rate a.i.: I.1 62.5 g/ha, B.100 (isoxaflutole) 12.5 g/ha, alone or as mixture (composition 1.100)): 30; herbicidal activity against VIOAR found (VIOAR; application rate a.i.: I.1 62.5 g/ha, B.30 (imazamox) 3.75 g/ha, alone or as mixture (composition 1.030)): 0; herbicidal activity against VIOAR found (VIOAR; application rate a.i.: I.1 62.5 g/ha, B.84 (paraquat-dichloride) 17.5 g/ha, alone or as mixture (composition 1.84)): 40; herbicidal activity against VIOAR found (VIOAR; applied alone at 125 g/ha a.i.): 60 and 80; herbicidal activity against VIOAR found (VIOAR; [14]): 0; herbicidal activity against VIOAR found (VIOAR; g/ha a.i.: I.1 62.5, B.63 0.5, mixture 62.5+0.5): 0; herbicidal activity against VIOAR found (VIOAR; [15]): 0; herbicidal activity against VIOAR found (VIOAR; g/ha a.i.: I.1 125, B.52 5, mixture 125+5): 0; herbicidal activity against VIOAR found (VIOAR; g/ha a.i.: I.1 125, B.63 1, mixture 125+1): 0; herbicidal activity against VIOLA found (VIOAR; single active, 15.625 g/ha a.i.): 0; herbicidal activity against VIOLA found (VIOAR; single active, 62.5 g/ha a.i.): 20; herbicidal activity against VIOLA found (VIOAR; single active, 125 g/ha a.i.): 30; herbicidal activity against SEBEX, found (SEBEX; [12]): 80; herbicidal activity against SEBEX, found (SEBEX; [13]): 75; herbicidal activity against SETVI found (SETVI): 25%
